Measurements from patent US20180332852A1, “Increased Almond Yields with Brassinosteroid Application” (Repar Corporation, priority 2017, published 2018).

Assays:
[1] = diluted solution; pH should be no greater than 7.0, optimally between 4.0 and 5.0; cited from earlier work
non Pareil almond tree = assay: Experiment 2: effects of HBR on nut size and fruit set in almond trees; type: in vivo, Prunus dulcis; conditions: 1 ppm HBR sprayed two weeks after full bloom; final fruit set at harvest
From the text: The effects of HBR on nut size and fruit set were studied in a population of 20 year old almond trees in Paine, Region 6 of Chile. The experimental design used a randomized block pattern with 10 replications of each experimental condition. Each experimental unit was a shoot of a non […] almond tree which was pollinated by bees in Solano and Carmel cultivars. Sufficient bee colonies were used for pollination of the orchard, including trees not receiving an experimental treatment. Flowers at full bloom were tallied and two weeks later the test branches were sprayed with either a control containing just water, a solution containing HBR at a rate of 1 ppm, a 10 ppm solution of HBR, or a solution of 10 ppm HBR and 10 ppm CPPU. Final fruit set on each test branch was taken at harvest. The percentage of fruit set was calculated by dividing the number of fruit per branch by the number of flowers counted before treatment and multiplying the result by 100.

[2] = system: Branches of Carmel cultivars (almond); assay: Experiment 3: pollen germination, pollen tube length and fruit set after treatment during flowering; type: in vivo, Prunus dulcis; conditions: percent of flowers containing germinated pollen, versus control
Protocol: Branches of Carmel cultivars were selected from a mature almond orchard further comprising Solando and Non […] cultivars. During flowering, the selected branches received either a brassinosteroid treatment (BL, EBL, or HBR) (FIGS. 1, 2, and 3) or a gibberellic acid (FIG. 4) treatment. Four hours after treatment the percent of flowers which contained germinated pollen was determined. Twenty-four hours after treatment the length of each pollen tube was measured. Finally, fruit set was tabulated 50 days after fertilization. Results across the brassinosteroids were similar. […] Fruit set at 50 days after flowering was greater in the BR group than either GA3 or control.

Structure (SMILES): CC[C@@H](C(C)C)C(O)C(O)[C@@H](C)[C@H]1CC[C@H]2[C@@H]3COC(=O)[C@H]4C[C@H](O)[C@H](O)C[C@]4(C)[C@H]3CC[C@]12C (stereo in doubt) [HBR, homobrassinolide]
- stability at alkaline pH levels [1]: not stable
- increase of fruit set over control (non Pareil almond tree): 21.1%
- pollen germination after four hours [2]: most effective treatment
